In ChEMBL document CHEMBL6120970, “Discovery and Functional Characterization of a Potent, Selective, and Metabolically Stable PROTAC of the Protein Kinases DYRK1A and DYRK1B” (J Med Chem, 2024):
Calls of active or inactive are those of the source. The calls are words filed in the database; no cut-off is given here.

Tests used:
[1] = target: T1, Protein cereblon/Dual specificity tyrosine-phosphorylation-regulated kinase 1A (Homo sapiens, UniProt Q13627+Q96SW2); test: Competitive binding affinity to CRBN/DYRK1A (unknown origin) assessed as dissociation rate constant Koff; format: protein assay
[2] = target: T1, Protein cereblon/Dual specificity tyrosine-phosphorylation-regulated kinase 1A; test: PROTAC activity at CRBN/DYRK1A in HEK293 cells assessed as induction of degradation of DYRK1A incubated for 24 hrs; format: cell-based
[3] = target: T1, Protein cereblon/Dual specificity tyrosine-phosphorylation-regulated kinase 1A; test: PROTAC activity at CRBN/DYRK1A in HEK293 cells assessed as induction of degradation of DYRK1A at 1 to 10000 nM incubated for 24 hrs in presence of 4-(3-(2-fluoro-4-(4-methylpiperazin-1-yl)phenyl)-2-methyl-3H-imidazo[4,5-b]pyridin-5-yl)pyridin-2-amine; format: cell-based; details: dose 1-10000 nM
[4] = target: T1, Protein cereblon/Dual specificity tyrosine-phosphorylation-regulated kinase 1A; test: PROTAC activity at CRBN/DYRK1A in HEK293 cells assessed as induction of degradation of DYRK1A at 100 nM pretreated with bortezomib followed by compound addition and incubated for 8 hrs; format: cell-based
[5] = target: T1, Protein cereblon/Dual specificity tyrosine-phosphorylation-regulated kinase 1A; test: PROTAC activity at CRBN/DYRK1A in human A549 cells assessed as induction of degradation of DYRK1A at 100 nM incubated for 24 hrs; format: cell-based
[6] = target: T1, Protein cereblon/Dual specificity tyrosine-phosphorylation-regulated kinase 1A; test: PROTAC activity at CRBN/DYRK1A in Flp-In-T-REx-293 cells overexpressing GFP-DYRK1A assessed as initial rate of degradation at 1 uM measured upto 6 hrs by fluorescence based phase contrast microscopy analysis; format: cell-based
[7] = target: T1, Protein cereblon/Dual specificity tyrosine-phosphorylation-regulated kinase 1A; test: PROTAC activity at CRBN/DYRK1A in HEK293 cells assessed as induction of degradation of DYRK1A at 100 nM measured within 8 hrs by Western blot analysis; format: cell-based
[8] = target: Protein cereblon/Dual specificity tyrosine-phosphorylation-regulated kinase 1B (Homo sapiens) (UniProt Q9Y463+Q96SW2); test: PROTAC activity at CRBN/DYRK1B in HEK293 cells assessed as induction of degradation of DYRK1B at 100 nM measured within 8 hrs by Western blot analysis; format: cell-based

`Cc1nc2ccc(-c3ccnc(N)c3)nc2n1-c1ccc(N2CCN(CC#Cc3ccc(N4CCC(C(=O)N5CCC(n6cc(CNc7cccc8c7C(=O)N(C7CCC(=O)NC7=O)C8=O)cn6)CC5)CC4)nc3)CC2)c(F)c1` (stereo not drawn) was tested, and the K [1] was 7.25 10^-4/s, the DC50 [2] was 12.3 nM and the Activity [3] was “inactive”. For the same molecule, the Activity [4] was “inactive”, the Activity [5] was “Active” and the Activity [6] was 0.74 h⁻¹. For the same molecule, the Activity [7] was “Active” and the Activity [8] was “Active”.
